From US20260207720A1, “COMPOSITIONS AND METHODS FOR TREATING FUNGAL INFECTIONS” (MUCPharm Pty Ltd, priority 2022, published 2026)
Converted amounts (≈) assume the structure as drawn. Like-named read-outs stand apart in the source and are kept apart here.

How the values were obtained:
Assay type in all cases: cell-based
Rhizopus arrhizus = assay: Chequerboard broth microdilution antifungal susceptibility testing (MIC)
Method: (§1) Unless otherwise described, fungal cultures were grown on potato dextrose agar plates at 35° C. until mature (appearance of conidia) and used to prepare suspensions in sterile water. […] These suspensions were then added in equal volume to solutions containing the candidate species described above and incubated at 35° C. for 24 hr. Plates were then analysed for fungal growth inhibition and MIC values determined. […] [MICA (combined)/MICA]+[MICB (combined)/MICB] MICA (combined) is the MIC of drug A when both drugs (i.e. drug A and drug B) are present and MICA is the MIC of drug A used in isolation. Similarly, MICB (combined) is the MIC of drug B when both drugs are present and MICB is the MIC of drug B used in isolation.

Rhizopus microsporus = assay: as above
Method: as §1

[1] = system: Candida Krusei (ATCC strain 6258); assay: Broth dilution susceptibility test, MIC and percent growth (Example 6)
Method: A. Preparation of inoculum: • 1. Candida glabrata was grown on Sabouraud dextrose agar (SDA) at 37° C. for 24-48 hrs. • 2. Following this, 5 colonies of 1 mm diameter were picked and suspended in 5 mL sterile saline (0.9% saline) and vortexed for 15 seconds. • 3. Working suspension is prepared as a 1:100 dilution from stock suspension with RPMI 1640 culture medium. • 4. The cell density is adjusted with a spectrophotometer to the transmittance produced by a 0.5 McFarland standard (0.08 to 0.1) OD at 625 nm wavelength.
• 1. For Bromelain, a stock concentration of 1 mg/ml Bromelain solution was prepared in RPMI media and diluted to test concentrations of 62.4, 31.2, 15.6 and 7.8 μg/ml in RPMI 1640 media. • 2. Acetylcysteine stock concentration is 200 mg/ml, diluted to 40, 20, 10, and 5 mg/ml concentrations in RPMI 1640 medium. • 3. These concentrations are prepared at 2× of the required concentrations in the final assay plate.
Antifungal stock concentrations are as follows— • 1. Amphotericin B, Stock concentration: 250 μg/ml in water. • 2. Posaconazole, Original concentration: 300 mg in 16.7 ml, Working stock concentration: 1 mg/ml in DMSO. • 3. Fluconazole, Original concentration: 100 mg in 50 ml, Working stock concentration: 1 mg/ml in DMSO. • 4. The final concentration was prepared in RPMI 1640 media and concentrations range was 0.01-0.5 μg/mL for amphotericin B, 0.01-2 μg/mL for posaconazole and 0.01-64 μg/mL for fluconazole. • 5. These concentrations were prepared at 2× of the required concentrations in the final assay plate.
• 1. Wells of the 96-well plates were inoculated with appropriate concentrations and volumes of drugs. • 2. Sterility control and growth controls are included in each plate. • 3. Each 96-well plate (except the control wells) contains 100 μL of double strength (twice the final antifungal drug) concentrations. • 4. 100 μL of the fungal suspension is added to 96-well plates (except the sterility control wells). • 5. The growth control wells contained 100 μL of sterile drug-free medium and 100 μL of inoculum suspension, while the sterility control wells contained 200 μl of sterile drug-free medium. • 6. Plates are then incubated at 37° C. and read at 625,430, and 530 nm wavelengths. • 7. Data from 24 hours and absorbance at 625 nm were used for analysis.
These experiments were conducted to determine the effect of BromAc alone and in combination with existing antifungal drugs against Candida Krusei (ATCC strain 6258).
The method used in these experiments is essentially the same as that described above in Example 5.

Aspergillus = assay: Susceptibility assay of antifungals with BromAc (Example 4); conditions: antifungal in combination with BromAc (5 mg/ml Acetylcysteine+12.5 μg/ml Bromelain) vs alone
Method: (§2) The in vitro antifungal properties of Bromelain, Acetylcysteine, BromAc, Amphotericin B, Isavuconazole, Fluconazole and Posaconazole were determined using a broth microdilution method in round bottom 96 well plates in accordance with standard procedures defined by the Clinical Laboratory Standards Institute (CLSI).
(§3) Unless otherwise described, fungal cultures were grown on potato dextrose agar plates at 35° C. until mature (appearance of conidia) and used to prepare suspensions in sterile water. Suspensions were diluted in RPMI 1:60. These suspensions were then added in equal volume to solutions containing the candidate species described above and incubated at 35° C. for 24 hr. Plates were then analysed for fungal growth inhibition and MIC values determined.
(§4) BromAc (5 mg/ml Acetylcysteine+12.5 μg/ml Bromelain) was used in combination with Amphotericin B, Isavuconazole, Posaconazole and Fluconazole. The MIC values of these four antifungal agents against the fungus described below were calculated and compared with their corresponding MIC values in the presence of BromAc, using the standard susceptibility assays described above.
(§5) The fungal strains set out in Table 2, all of which were sourced from a range of clinical isolates from Australian hospitals, were used in these experiments to gain a further understanding of the efficacy of BromAc in combination with Amphotericin B, Isavuconazole, Posaconazole and Fluconazole.

Candida glabrata = assay: as above
Method: as §2, §3, §4, §5

Candida kruseii = assay: as above; conditions: antifungal in combination with BromAc (5 mg/ml Acetylcysteine+12.5 μg/ml Bromelain) vs alone
Method: as §2, §3, §4, §5

Candida parapslosis = assay: as above
Method: as §2, §3, §4, §5

Candida tropicalis = assay: as above
Method: as §2, §3, §4, §5

Cryptococcus = assay: as above
Method: as §2, §3, §4, §5

Fusarium = assay: as above; conditions: antifungal in combination with BromAc (5 mg/ml Acetylcysteine+12.5 μg/ml Bromelain) vs alone
Method: as §2, §3, §4, §5

[2] = antifungal in combination with BromAc (5 mg/ml Acetylcysteine+12.5 μg/ml Bromelain) vs alone

## CC[C@@H]([C@H](C)O)n1ncn(-c2ccc(N3CCN(c4ccc(OC[C@@H]5CO[C@@](Cn6cncn6)(c6ccc(F)cc6F)C5)cc4)CC3)cc2)c1=O [Posaconazole]
Rhizopus arrhizus; Rhizopus Arrhizus, antifungal with BromAc
  isolates with 10× increase: 7 of 8
Rhizopus arrhizus; Rhizopus arrhizus, Rhizopus arrhizus (80-21-015-4777), drug alone, read-out: MIC
  MIC: 0.5 µg/mL (≈ 0.713 µM)
Rhizopus arrhizus; Rhizopus arrhizus, eight R. arrhizus strains, read-out: MIC, average over the strains
  MIC: 0.8 µg/mL (≈ 1.14 µM)
Rhizopus arrhizus; Rhizopus arrhizus, isolate R. archizus 1, BromAc at constant concentration where combined, read-out: MIC
  MIC: 1 µg/mL
Rhizopus arrhizus; Rhizopus arrhizus, isolate R. archizus 2, BromAc at constant concentration where combined, read-out: MIC
  MIC: 1 µg/mL
Rhizopus arrhizus; Rhizopus arrhizus, isolate R. archizus 3, BromAc at constant concentration where combined, read-out: MIC
  MIC: 0.25 µg/mL
Rhizopus arrhizus; Rhizopus arrhizus, isolate R. archizus 8, BromAc at constant concentration where combined, read-out: MIC
  MIC: 0.25 µg/mL
Rhizopus arrhizus; Rhizopus arrhizus, isolate R. arrhizus 4, BromAc at constant concentration where combined, read-out: MIC
  MIC: 0.25 µg/mL
Rhizopus arrhizus; Rhizopus arrhizus, isolate R. arrhizus 5, BromAc at constant concentration where combined, read-out: MIC
  MIC: 0.25 µg/mL
Rhizopus arrhizus; Rhizopus arrhizus, isolate R. arrhizus 6, BromAc at constant concentration where combined, read-out: MIC
  MIC: 0.5 µg/mL
Rhizopus arrhizus; Rhizopus arrhizus, isolate R. arrhizus 7, BromAc at constant concentration where combined, read-out: MIC
  MIC: 0.25 µg/mL
Rhizopus arrhizus; Rhizopus arrhizus, antifungal in combination with BromAc (5 mg/ml Acetylcysteine+12.5 μg/ml Bromelain) vs alone
  Observed inhibitory effect: Strong (Strong = 5-10x (or greater) inhibitory effect)
Rhizopus arrhizus; eight R. arrhizus strains
  MICs, range over the strains: 0.25 to 1 µg/mL
Rhizopus microsporus; Rhizopus microspores, antifungal with BromAc
  isolates with more than 10× increase: 9 of 10
Rhizopus microsporus; Rhizopus microsporus, Rhizopus microsporus (80-21-006-5340), drug alone, read-out: MIC
  MIC: 1 µg/mL (≈ 1.43 µM)
Rhizopus microsporus; Rhizopus microsporus, eight R. microsporus strains, read-out: MIC, average over the strains
  MIC: 0.5 µg/mL (≈ 0.713 µM)
Rhizopus microsporus; Rhizopus microsporus, isolate R. microsporus 1, BromAc at constant concentration where combined, read-out: MIC
  MIC: 1 µg/mL
Rhizopus microsporus; Rhizopus microsporus, isolate R. microsporus 2, BromAc at constant concentration where combined, read-out: MIC
  MIC: 1 µg/mL
Rhizopus microsporus; Rhizopus microsporus, isolate R. microsporus 3, BromAc at constant concentration where combined, read-out: MIC
  MIC: 0.25 µg/mL
Rhizopus microsporus; Rhizopus microsporus, isolate R. microsporus 4, BromAc at constant concentration where combined, read-out: MIC
  MIC: 0.25 µg/mL
Rhizopus microsporus; Rhizopus microsporus, isolate R. microsporus 5, BromAc at constant concentration where combined, read-out: MIC
  MIC: 0.25 µg/mL
Rhizopus microsporus; Rhizopus microsporus, isolate R. microsporus 6, BromAc at constant concentration where combined, read-out: MIC
  MIC: 0.25 µg/mL
Rhizopus microsporus; Rhizopus microsporus, isolate R. microsporus 7, BromAc at constant concentration where combined, read-out: MIC
  MIC: 0.25 µg/mL
Rhizopus microsporus; Rhizopus microsporus, isolate R. microsporus 8, BromAc at constant concentration where combined, read-out: MIC
  MIC: 0.25 µg/mL
Rhizopus microsporus; Rhizopus microsporus, antifungal in combination with BromAc (5 mg/ml Acetylcysteine+12.5 μg/ml Bromelain) vs alone
  Observed inhibitory effect: Strong (Strong = 5-10x (or greater) inhibitory effect)
Rhizopus microsporus; eight R. microsporus strains
  MICs, range over the strains: 0.25 to 1 µg/mL
[1]; Pichia kudriavzevii, ATCC6258, FIG. 10
  MIC: 1 µg/mL
[1]; Pichia kudriavzevii, ATCC6258, Posaconazole 1 ug/ml, Fluconazole 32 μg/ml, read-out: activity (growth inhibition) at its MIC
  inhibition at 1 µg/mL: > 50%
[1]; below the MIC (Posaconazole 0.03 μg/ml)
  effect at lower doses / concentrations compared to GC (in words): no significant inhibition
Aspergillus
  Observed inhibitory effect: Moderate (Moderate = 1-5x inhibitory effect)
Candida glabrata; [2]
  Observed inhibitory effect: Strong (Strong = 5-10x (or greater) inhibitory effect)
Candida glabrata; antifungal with BromAc
  isolates with more than a 10× increase in sensitivity: 5 of 5
Candida kruseii
  Observed inhibitory effect: Strong (Strong = 5-10x (or greater) inhibitory effect)
Candida parapslosis; Candida parapsilosis, antifungal with BromAc
  increase in sensitivity: more than 10 ×
Candida parapslosis; Candida parapslosis, antifungal in combination with BromAc (5 mg/ml Acetylcysteine+12.5 μg/ml Bromelain) vs alone
  Observed inhibitory effect: Strong (Strong = 5-10x (or greater) inhibitory effect)
Candida tropicalis; [2]
  Observed inhibitory effect: Strong (Strong = 5-10x (or greater) inhibitory effect)
Candida tropicalis; antifungal with BromAc
  isolates with more than a 10× increase in sensitivity: 4 of 5
Cryptococcus; [2]
  Observed inhibitory effect: Strong (Strong = 5-10x (or greater) inhibitory effect)
Cryptococcus; antifungal with BromAc
  isolates with more than 10× increase: 5 of 5
Fusarium
  Observed inhibitory effect: No effect
